Experiments:
[1] = test system: Adriamycin resistant strain K562/ADM cells of human myeloleukemia K562 cells; experiment: Potentiating effect on activity of vincristine against adriamycin-resistant cells (growth inhibition); type: cell-based; settings: for effect in potentiating vincristine activity, multiples of the control: ratio to control IC50 655
Source text: Potentiating Effect of the Compounds on Activity of Anticancer Drugs

[2] = test system: Vincristine-resistant strain P388/VCR cells of mouse leukemia P388 cells; experiment: Potentiating effect on vincristine in mice having vincristine-resistant mouse leukemia (survival); type: in vivo, mouse (female CDFI mice); settings: peritoneal, once a day for 5 days; for T/C (rate of life prolongation): control = 100
[3] = test system: Adriamycin resistant strain 2780 AD cells of human ovarian cancer A2780 cells; experiment: Potentiating effect on incorporation of 3H-vincristine into adriamycin-resistant cancer cells; type: cell-based; settings: Homo sapiens, 2780AD, 2 h, 20 nM 3H-vincristine, control = 100, read-out: 3H-vincristine accumulation; for activity at 1 µg/mL: compound 1 μg/ml; for activity at 10 µg/mL: compound 10 μg/ml
Procedure, shortened: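 Cells at 1×10^6/ml were grown 24 h, then incubated 2 h at 37 °C in RPMI-1640 with 20 nM ^3H-vincristine, 5% FCS and compound (solution at 1.0 or 10.0 μg/ml). After washing and lysis in 0.2N NaOH, cellular ^3H-vincristine was counted by scintillation.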

[4] = test system: drug-resistant cancer cells; settings: calcium antagonists such as verapamil; cited from earlier work
[5] = compound 3 mg/kg + vincristine 100 ug/kg
[6] = compound 10 mg/kg + vincristine 100 ug/kg
[7] = compound 30 mg/kg + vincristine 100 ug/kg

SMILES	Average surviving period [2, 7] [days]	T/C (rate of life prolongation) [2, 7] [%]	activity at 1 µg/mL [3] [%]	activity at 10 µg/mL [3] [%]	other results
CC[C@]1(O)C[C@H]2CN(CCc3c([nH]c4ccccc34)[C@@](C(=O)OC)(c3cc4c(cc3OC)N(C=O)[C@H]3[C@@](O)(C(=O)OC)[C@H](OC(C)=O)[C@]5(CC)C=CCN6CC[C@]43[C@@H]65)C2)C1 [Vincristine, vincristine, reference compound]					IC50 ([1]; Homo sapiens, K562, read-out: IC50 (vincristine concentration at which 50% of the growth was inhibited)): 0.655 µg/mL
OC(COc1cccc2ncccc12)CN1CCN(C(c2ccccc2)c2ccccc2)CC1 (stereo not drawn) [Example 1, 5-[3-(4-Diphenylmethylpiperazine-1-yl)-2-hydroxypropoxy]quinoline]	12.8 ± 0.4	114	717	747	effect in potentiating vincristine activity, multiples of the control ([1]; compound 0.3 μg/ml): 151.2; effect in potentiating vincristine activity, multiples of the control ([1]; compound 1 μg/ml): 342.1; effect in potentiating vincristine activity, multiples of the control ([1]; compound 3 μg/ml): 433.3; Average surviving period [2, 5]: 12.4 ± 0.2 days; T/C (rate of life prolongation) [2, 5]: 111%; Average surviving period [2, 6]: 12.2 ± 0.4 days; T/C (rate of life prolongation) [2, 6]: 109%
O=C(CCN1CCN(C2c3ccccc3CCc3ccccc32)CC1)Nc1cccc2ncccc12 [Example 36]	12.6 ± 0.9	122	821	716	
Cc1cc(C(F)(F)F)nc2cccc(OCC(O)CN3CCN(C(=O)C(c4ccccc4)c4ccccc4)CC3)c12 (stereo not drawn) [Example 55, 2-Trifluoromethyl-4-methyl-5-[3-(4-(α,α-diphenylacetyl)piperazine-1-yl)-2-hydroxypropoxy]quinoline]	12.7 ± 0.3	120	452	756	
OC(COc1cccc2ncccc12)CN1CCC(=C2c3ccccc3CCc3ccccc32)CC1 (stereo not drawn) [Example 80, 5-[3-(4-(Dibenzosuberane-5-ylidene)piperidine-1-yl)-2-hydroxypropoxy]quinoline]	14.3 ± 0.6	134	942		
OC(COc1cccc2ncccc12)CN1CCN(C(c2ccccc2)c2ccc(Cl)cc2)CC1 (stereo not drawn) [Example 58, 5-(3-[4-((4-Chlorophenyl)-phenylmethyl)piperazine-1-yl]-2-hydroxypropoxy)quinoline]	13.8 ± 1.8	130	619	843	
COc1ccc(CCN(C)CCCC(C#N)(c2ccc(OC)c(OC)c2)C(C)C)cc1OC (stereo not drawn) [verapamil]					prevention of discharge of anticancer drugs from cancer cells [4]: prevent discharge of anticancer drugs from cancer cells
c1ccc2c(c1)CCc1ccccc1C2N1CCN(CCCOc2cccc3ncccc23)CC1 [Example 83, 5-[3-(4-(Dibenzosuberane-5-yl)piperazine-1-yl)propoxy]quinoline]	13.5 ± 0.5	126	957		
OC(COc1cccc2ncccc12)CN1CCC(C2c3ccccc3CCc3ccccc32)CC1 (stereo not drawn) [Example 81, 5-[3-(4-(Dibenzosuberane-5-yl)piperidine-1-yl)-2-hydroxypropoxy]quinoline]	13.2 ± 0.9	123	992		
O=C(CCN1CCN(C(c2ccccc2)c2ccccc2)CC1)Nc1cccc2ncccc12 [Example 35, 5-[3-(4-Diphenylmethypiperazine-1-yl)propionamido]-quinoline]	11.9 ± 0.7	116	654	627	
Cc1cc(C)c2c(OCC(O)CN3CCN(C(=O)N4c5ccccc5CCc5ccccc54)CC3)cccc2n1 (stereo not drawn) [Example 61, 2,4-Dimethyl-5-[3-(4-(iminodibenzyl-5-carbonyl)piperazine-1-yl)-2-hydroxypropoxy]quinoline]	11.5 ± 0.3	108	519	602	
CCc1cnc2cccc(OCC(O)CN3CCN(C(c4ccccc4)c4ccccc4)CC3)c2c1 (stereo not drawn) [Example 12, 3-Ethyl-5-[3-(4-diphenylmethylpiperazine-1-yl)-2-hydroxypropoxy]quinoline]	12.5 ± 0.5	114	568	831	
c1ccc(C(c2ccccc2)N2CCN(CCCOc3cccc4ncccc34)CC2)cc1 [Example 32, 5-[3-(4-Diphenylmethylpiperazine-1-yl)propoxy]quinoline]	11.3 ± 0.4	110	816		
Cc1cc(C)c2c(OCC(O)CN3CCN(C(c4ccccc4)c4ccccc4)CC3)cccc2n1 (stereo not drawn) [Example 5, 2,4-Dimethyl-5-[3-(4-diphenylmethylpiperazine-1-yl)-2-hydroxypropoxy]quinoline]	12.8 ± 0.8	124	732		
OC(COc1cccc2ncccc12)CN1CCN(C2c3ccccc3CCc3ccccc32)CC1 (stereo not drawn) [Example 2, 5-[3-(4-(Dibenzosuberane-5-yl)piperazine-1-yl)-2-hydroxypropoxy]quinoline]	15.2 ± 0.7	136	663	709	effect in potentiating vincristine activity, multiples of the control ([1]; compound 0.3 μg/ml): 330.3; effect in potentiating vincristine activity, multiples of the control ([1]; compound 1 μg/ml): 388.0; effect in potentiating vincristine activity, multiples of the control ([1]; compound 3 μg/ml): 550.0; Average surviving period [2, 5]: 12.6 ± 0.2 days; T/C (rate of life prolongation) [2, 5]: 113%
O=C(C(c1ccccc1)c1ccccc1)N1CCN(CC(O)COc2cccc3ncccc23)CC1 (stereo not drawn) [Example 16, 5-[3-(4-(2,2-Diphenylacetyl)piperazine-1-yl)-2-hydroxypropoxy]quinoline]	13.9 ± 1.4	132	850	982	
O=C(N1CCN(CC(O)COc2cccc3ncccc23)CC1)N1c2ccccc2CCc2ccccc21 (stereo not drawn) [Example 60, 5-[3-(4-(Iminodibenzyl-5-carbonyl)piperazine-1-yl)-2-hydroxypropoxy]quinoline]	12.4 ± 0.7	117	643	760	

Source: patent publication US5405843A, “Quinoline derivatives” (Mitsui Toatsu Chemicals, Incorporated, priority 1988, dated 1995)
